Publication PMC4435632, “Phase 1 study of ixazomib, an investigational proteasome inhibitor, in advanced non-hematologic malignancies” (Investigational New Drugs, 2015)

Legend:
Format in all cases: in vivo
[1] = Plasma ixazomib pharmacokinetics (LC/MS/MS, noncompartmental)
Method: (§1) Blood samples for determination of plasma ixazomib concentrations for pharmacokinetic analysis (3 mL) and for measurement of whole blood 20S proteasome activity (1 mL) were collected at the following timepoints for all patients in the dose-escalation cohort and for the first 12 patients completing cycle 1 while receiving protocol-specified treatment at the MTD: pre-dose (within 1 h) on days 1, 4, 8, and 11 of cycle 1, and on day 1 of cycle 2; and on days 1 and 11, cycle 1, at 5, 15 and 30 min, and 1, 2, 4, 9, 24, 48, 96 (day 11 only), 120 (day 11 only), and 168 (day 11 only) h post-dose. A limited sampling schedule was employed for the remaining patients in the MTD expansion cohorts.
(§2) Plasma concentrations of ixazomib were measured using a good laboratory practice-validated liquid chromatography/tandem mass spectrometry (LC/MS/MS) assay with a lower limit of quantification of 0.5 ng/mL. Whole blood 20S proteasome activity (expressed as percent proteasome inhibition relative to baseline) was measured using an established fluorogenic assay, which evaluates the chymotrypsin-like activity of the β5 subunit of the 20S proteasome, the primary target of ixazomib. […]
(§3) All efficacy and safety data were summarized using descriptive statistics. Pharmacokinetic and pharmacodynamic parameters were calculated using noncompartmental methods (WinNonlin software v5.3).

[2] = biological target: chymotrypsin-like activity of the β5 subunit of the 20S proteasome (Homo sapiens, UniProt P28074); assay: Whole blood 20S proteasome activity, fluorogenic assay
Method: as §1, §2, §3

[3] = tested on: patients with advanced non-hematologic malignancies; assay: Dose-limiting toxicities in cycle 1 and determination of MTD
Method: The dose-escalation cohort comprised patients with any non-hematologic malignancy. The four MTD expansion cohorts were limited to patients with non-small cell lung cancer (NSCLC), head and neck cancer (squamous cell cancer), soft tissue sarcoma, and prostate cancer, respectively. In addition, the TPEC was open to patients with non-hematologic malignancy that could be safely biopsied. Dose escalation initially proceeded from a starting dose of 0.125 mg/m^2 of body surface area, with one patient per dose level and dose doubling up to a dose of 1.0 mg/m^2. Dose doubling was permitted until one of the following occurred: one patient experienced a dose-limiting toxicity (DLT) during cycle 1; any two patients experienced a drug-related adverse event (AE) of grade ≥2 during cycle 1; or the dose level of 1 mg/m^2 had been evaluated. Dose escalation then proceeded in 33 % increments following a standard 3 + 3 schema based on the occurrence of DLTs in cycle 1. […]
The safety population included all patients who received ≥1 dose of ixazomib, and the DLT-evaluable population, which was used for determination of the MTD, comprised patients who received all cycle 1 doses of ixazomib or experienced a DLT in cycle 1. […] Approximately 16 response-evaluable patients were planned to be evaluated in each MTD expansion cohort.

Compound: CC(C)C[C@H](NC(=O)CNC(=O)c1cc(Cl)ccc1Cl)B(O)O [ixazomib]
- C0 (extrapolated immediate post-bolus plasma concentration) ([1]; day 1, 2.34 mg/m^2 IV, n = 1, individual value): 901 ng/mL
- t½ (terminal disposition phase half-life) ([1]; day 11, 1.33 mg/m^2 IV, n = 3, geometric mean (% CV)): 145 (19) h
- Decrease of mean plasma concentrations ([1]; human, in vivo, 8 h): approximately 90%
- Accumulation of ixazomib ([1]; human, in vivo, 11 day of cycle 1): approximately 3 fold
- half-life ([1]; human, in vivo, iv): 91.2 to 173 h
- C0 ([1]; human, in vivo, iv, 0.125 mg/m2, C0 (extrapolated immediate post-bolus plasma concentration)): 27.1 ng/mL
- AUC(0-t) ([1]; human, in vivo, iv, 0.25 mg/m2, AUC0–72): 60.9 ng·h/mL
- C0 ([1]; human, in vivo, iv, 0.25 mg/m2, C0 (extrapolated immediate post-bolus plasma concentration)): 69 ng/mL
- half-life ([1]; human, in vivo, iv, 1 mg/m2): 172 h
- C0 ([1]; human, in vivo, iv, 1 mg/m2, C0 (extrapolated immediate post-bolus plasma concentration)): 273 ng/mL
- C0 ([1]; human, in vivo, iv, 1.33 mg/m2, C0 (extrapolated immediate post-bolus plasma concentration)): 390 ng/mL
- half-life ([1]; human, in vivo, iv, 1.76 mg/m2): 110 h
- C0 ([1]; human, in vivo, iv, 1.76 mg/m2, C0 (extrapolated immediate post-bolus plasma concentration)): 556 ng/mL
- half-life ([1]; human, in vivo, iv, 2.34 mg/m2): 90.8 h
- C0 ([1]; human, in vivo, iv, 2.34 mg/m2, C0 (extrapolated immediate post-bolus plasma concentration)): 869 ng/mL
- Plasma exposure versus dose ([1]; in vivo): appeared to increase proportionally with increasing ixazomib dose
- Time to Emax, whole blood 20S proteasome ([2]; day 1, 0.125 mg/m^2 IV, n = 1): 1.0 h
- Emax, whole blood 20S proteasome ([2]; day 1, 0.125 mg/m^2 IV, n = 1, individual value): 7.7 % inhibition
- Time to Emax, whole blood 20S proteasome ([2]; day 1, 0.25 mg/m^2 IV, n = 1): 0.10 h
- Emax, whole blood 20S proteasome ([2]; day 1, 0.25 mg/m^2 IV, n = 1, individual value): 17.9 % inhibition
- Time to Emax, whole blood 20S proteasome ([2]; day 1, 0.5 mg/m^2 IV, n = 1): 0.25 h
- Emax, whole blood 20S proteasome ([2]; day 1, 0.5 mg/m^2 IV, n = 1, individual value): 28.2 % inhibition
- Emax, whole blood 20S proteasome ([2]; day 1, 1 mg/m^2 IV, n = 7, mean (± SD)): 36.9 (±19.4) % inhibition
- Time to Emax, whole blood 20S proteasome ([2]; day 1, 1 mg/m^2 IV, n = 7, median (range)): 0.10 (0.08–0.10) h
- Emax, whole blood 20S proteasome ([2]; day 1, 1.33 mg/m^2 IV, n = 4, mean (± SD)): 46.7 (±9.4) % inhibition
- Time to Emax, whole blood 20S proteasome ([2]; day 1, 1.33 mg/m^2 IV, n = 4, median (range)): 0.25 (0.1–0.25) h
- Emax, whole blood 20S proteasome ([2]; day 1, 1.76 mg/m^2 IV, n = 19, mean (± SD)): 61.3 (±7.9) % inhibition
- Time to Emax, whole blood 20S proteasome ([2]; day 1, 1.76 mg/m^2 IV, n = 19, median (range)): 0.10 (0.067–0.267) h
- Emax, whole blood 20S proteasome ([2]; day 1, 2.34 mg/m^2 IV, n = 3, mean (± SD)): 64.4 (±3.4) % inhibition
- Time to Emax, whole blood 20S proteasome ([2]; day 11, 0.125 mg/m^2 IV, n = 1): 24.0 h
- Emax, whole blood 20S proteasome ([2]; day 11, 0.125 mg/m^2 IV, n = 1, individual value): 4.5 % inhibition
- Time to Emax, whole blood 20S proteasome ([2]; day 11, 0.25 mg/m^2 IV, n = 1): 0.083 h
- Emax, whole blood 20S proteasome ([2]; day 11, 0.25 mg/m^2 IV, n = 1, individual value): 10.0 % inhibition
- Time to Emax, whole blood 20S proteasome ([2]; day 11, 0.5 mg/m^2 IV, n = 1): 0.1 h
- Emax, whole blood 20S proteasome ([2]; day 11, 0.5 mg/m^2 IV, n = 1, individual value): 46.1 % inhibition
- Emax, whole blood 20S proteasome ([2]; day 11, 1 mg/m^2 IV, n = 6, mean (± SD)): 38.9 (±8.35) % inhibition
- Time to Emax, whole blood 20S proteasome ([2]; day 11, 1 mg/m^2 IV, n = 6, median (range)): 0.1 (0.0–0.117) h
- Emax, whole blood 20S proteasome ([2]; day 11, 1.33 mg/m^2 IV, n = 3, mean (± SD)): 54.3 (±4.1) % inhibition
- Time to Emax, whole blood 20S proteasome ([2]; day 11, 1.33 mg/m^2 IV, n = 3, median (range)): 0.083 (0.083–0.1) h
- Emax, whole blood 20S proteasome ([2]; day 11, 1.76 mg/m^2 IV, n = 15, mean (± SD)): 62.5 (±7.71) % inhibition
- Time to Emax, whole blood 20S proteasome ([2]; day 11, 1.76 mg/m^2 IV, n = 15, median (range)): 0.10 (0.083–0.283) h
- Emax, whole blood 20S proteasome ([2]; day 11, 2.34 mg/m^2 IV, n = 3, mean (± SD)): 72.5 (±4.71) % inhibition
- Time to Emax, whole blood 20S proteasome ([2]; day 11, 2.34 mg/m^2 IV, n = 3, median (range)): 0.10 (0.083-0.133) h
- inhibition at 1.76 mg/m2 ([2]; read-out: Average maximal inhibition of 20S proteasome activity in whole blood): 60%
- Recovery of 20S proteasome activity to predose levels ([2]; single-dose administration on day 1, except dose level greater than the MTD): ≤ 24 h
- MTD (maximum tolerated dose) ([3]; IV on days 1, 4, 8, and 11 of a 21-day cycle): 1.76 mg/m^2
- Patients who experienced DLTs ([3]; in vivo): Five
